Experiment: logP by HPLC on reversed-phase column (C 18), EEC Directive 79/831 Annex V.A8
Type: physicochemical
Details: HPLC reversed-phase C 18; 40° C.; 0.1% aqueous formic acid and acetonitrile, linear gradient 10% to 90% acetonitrile
Description: Temperature: 40° C.; Mobile phases: 0.1% aqueous formic acid and acetonitrile; linear gradient from 10% acetonitrile to 90% acetonitrile.
Calibration was carried out using unbranched alkan-2-ones (comprising 3 to 16 carbon atoms) with known logP values (determination of the logP values by the retention times using linear interpolation between two successive alkanones).

Row | SMILES | log p (HCOOH)
1 | CCN(C)C=Nc1ccc(-c2ccc(Cl)cc2Cl)cc1C(F)(F)F [Compound 85] | 2.39
2 | CCN(C)C=Nc1ccc(-c2ccc(Cl)cc2Cl)cc1F [Compound 86] | 2.05
3 | CCN(C)C=Nc1ccc(-c2ccc(OC)cc2)cc1C(F)(F)F [Compound 87] | 1.78
4 | CCN(C)C=Nc1ccc(-c2ccc(OC)cc2)cc1F [Compound 88] | 1.59
5 | CCN(C)C=Nc1ccc(-c2ccc(Oc3ccccc3)cc2)cc1C(F)(F)F [Compound 89] | 2.65
6 | CCN(C)C=Nc1ccc(-c2ccc(Oc3ccccc3)cc2)cc1F [Compound 90] | 2.20
7 | CCN(C)C=Nc1ccc(-c2ccc(OCc3ccccc3)cc2)cc1C(F)(F)F [Compound 91] | 2.43
8 | CCN(C)C=Nc1ccc(-c2ccc(OCc3ccccc3)cc2)cc1F [Compound 92] | 2.27
9 | CCN(C)C=Nc1ccc(-c2ccc(COC)cc2)cc1C(F)(F)F [Compound 93] | 1.76
10 | CCN(C)C=Nc1ccc(-c2ccc(OC)c(OC)c2)cc1C(F)(F)F [Compound 94] | 1.71
11 | CCN(C)C=Nc1ccc(-c2ccc(OC)c(OC)c2)cc1F [Compound 95] | 1.41
12 | CCN(C)C=Nc1ccc(-c2cccc(Cl)c2)c(Cl)c1 [Compound 96] | 1.92
13 | CCN(C)C=Nc1cc(OC)c(-c2ccc(OC)c(Cl)c2)cc1OC [Compound 97] | 1.83
14 | CCN(C)C=Nc1cc(OC)c(-c2ccc(C)cc2)cc1OC [Compound 98] | 1.89
15 | CC(C)N(C)C=Nc1ccc(-c2cccc(Cl)c2)c(Cl)c1 [Compound 101] | 2.04
16 | COc1ccc(-c2cc(OC)c(N=CN(C)C(C)C)cc2OC)cc1Cl [Compound 102] | 1.95
17 | COc1cc(-c2ccc(C)cc2)c(OC)cc1N=CN(C)C(C)C [Compound 103] | 2.01
18 | CCN(C)C=Nc1cc(C)c(-c2ccc(C(C)(C)C)cc2)cc1Cl [Compound 106] | 2.71
19 | CCN(C)C=Nc1cc(C)c(-c2ccc(Cl)c(C(F)(F)F)c2)cc1Cl [Compound 107] | 2.30
20 | CCN(C)C=Nc1ccc(-c2ccc(Cl)c(C)c2)cc1C [Compound 108] | 2.14
21 | CCN(C)C=Nc1cc(C)c(-c2ccc(Cl)c(C)c2)cc1C [Compound 109] | 2.27
22 | CCN(C)C=Nc1ccc(-c2ccc(Cl)c(C)c2)cc1Cl [Compound 110] | 2.13
23 | CCN(C)C=Nc1ccc(-c2ccc(Cl)cc2C)cc1C [Compound 111] | 2.23
24 | CCN(C)C=Nc1cc(C)c(-c2ccc(Cl)cc2C)cc1C [Compound 112] | 2.24
25 | CCN(C)C=Nc1ccc(-c2ccc(Cl)cc2C)cc1Cl [Compound 113] | 2.03

Row | SMILES | log p (HCOOH)
26 | CCN(C)C=Nc1cc(C)c(-c2ccc(OC)c(C)c2)cc1C [Compound 114] | 2.05
27 | CCN(C)C=Nc1ccc(-c2ccc(OC)c(C)c2)cc1Cl [Compound 115] | 1.86
28 | Cc1cc(-c2ccc(C(C)(C)C)cc2)c(C)cc1N=CN1CCCCC1 [Compound 116] | 2.69
29 | Cc1cc(-c2ccc(C(C)(C)C)cc2)c(C)cc1N=CN1CCCCC1C (stereo not shown) [Compound 117] | 3.02
30 | Cc1cc(-c2ccc(C(C)(C)C)cc2)c(C)cc1N=CN1CCOCC1 [Compound 118] | 2.53
31 | Cc1cc(-c2ccc(C(C)(C)C)cc2)c(C)cc1N=CN1CCCC1 [Compound 119] | 2.79
32 | Cc1cc(-c2ccc(C(C)(C)C)cc2)c(C)cc1N=C1CCCN1 [Compound 120] | 2.53
33 | Cc1cc(-c2ccc(Cl)cc2)c(C)cc1N=C1NCCCN1 [Compound 122] | 2.08
34 | Cc1cc(-c2ccc(F)cc2)c(C)cc1N=C1NCCCN1 [Compound 123] | 1.81
35 | Cc1cc(-c2ccc(F)cc2)c(C)cc1N=C1NCCN1 [Compound 124] | 1.72
36 | CCN(C)C=Nc1cc(C)c(-c2ccc(Cl)cc2)cc1C [Compound 125] | 2.18
37 | CCN(C)C=Nc1ccc(-c2ccc(F)cc2)cc1C [Compound 126] | 1.84
38 | CCN(C)C=Nc1ccc(-c2ccc(C#N)cc2)cc1C [Compound 130] | 1.54
39 | CCN(C)C=Nc1cc(C)c(-c2ccc(C)cc2)cc1C [Compound 131] | 2.01
40 | CCN(C)C=Nc1cc(C)c(-c2ccc(C(F)(F)F)cc2)cc1C [Compound 132] | 2.19
41 | CCN(C)C=Nc1cc(C)c(-c2cccc(Cl)c2)cc1C [Compound 133] | 2.15
42 | CCN(C)C=Nc1cc(C)c(-c2ccccc2)cc1C [Compound 134] | 1.77
43 | CCN(C)C=Nc1cc(C)c(-c2cccc3ccccc23)cc1C [Compound 135] | 2.13
44 | CCN(C)C=Nc1cc(C)c(-c2ccc(C#N)cc2)cc1C [Compound 136] | 1.54
45 | CCN(C)C=Nc1cc(C)c(-c2ccc(F)c(Cl)c2)cc1C [Compound 137] | 2.02
46 | Cc1cc(-c2ccc(C(C)(C)C)cc2)ccc1N=C1CCCCN1 [Compound 138] | 2.45
47 | CCON=C(C)c1ccc(-c2cc(C)c(N=CN(C)CC)cc2C)cc1 [Compound 139] | 2.55
48 | C=CCN(C)C=Nc1cc(C)c(-c2ccc(C(C)=NOCC)cc2)cc1C [Compound 140] | 2.60
49 | CCON=C(C)c1ccc(-c2cc(C)c(N=CN3CCCCC3)cc2C)cc1 [Compound 141] | 2.22
50 | CCN(C)C=Nc1cc(C)c(-c2ccc(C(F)(F)F)c(Cl)c2)cc1C [Compound 142] | 2.59

Row | SMILES | log p (HCOOH)
51 | CCCN(C)C=Nc1cc(C)c(-c2ccc(C(F)(F)F)c(Cl)c2)cc1C [Compound 143] | 2.69
52 | C=CCN(C)C=Nc1cc(C)c(-c2ccc(C(F)(F)F)c(Cl)c2)cc1C [Compound 144] | 2.70
53 | Cc1cc(-c2ccc(C(F)(F)F)c(Cl)c2)c(C)cc1N=CN1CCCCC1 [Compound 145] | 2.78
54 | CCN(C)C=Nc1cc(C)c(-c2ccc(C)c(Cl)c2)cc1C [Compound 146] | 2.37
55 | CCCN(C)C=Nc1cc(C)c(-c2ccc(C)c(Cl)c2)cc1C [Compound 147] | 2.56
56 | C=CCN(C)C=Nc1cc(C)c(-c2ccc(C)c(Cl)c2)cc1C [Compound 148] | 2.48
57 | Cc1ccc(-c2cc(C)c(N=CN3CCCCC3)cc2C)cc1Cl [Compound 149] | 2.53
58 | Cc1ccc(-c2cc(C)c(N=CN3CCCC3)cc2C)cc1Cl [Compound 150] | 2.37
59 | CCN(C)C=Nc1cc(C)c(-c2ccc([Si](C)(C)C)cc2)cc1C [Compound 151] | 2.98
60 | CCCN(C)C=Nc1cc(C)c(-c2ccc([Si](C)(C)C)cc2)cc1C [Compound 152] | 3.10
61 | C=CCN(C)C=Nc1cc(C)c(-c2ccc([Si](C)(C)C)cc2)cc1C [Compound 153] | 3.08
62 | Cc1cc(-c2ccc([Si](C)(C)C)cc2)c(C)cc1N=CN1CCCCC1 [Compound 154] | 3.16
63 | CCN(C)C=Nc1cc(C)c(-c2ccc(C(C)C)cc2)cc1C [Compound 155] | 2.34
64 | CCCN(C)C=Nc1cc(C)c(-c2ccc(C(C)C)cc2)cc1C [Compound 156] | 2.70
65 | C=CCN(C)C=Nc1cc(C)c(-c2ccc(C(C)C)cc2)cc1C [Compound 157] | 2.60
66 | Cc1cc(-c2ccc(C(C)C)cc2)c(C)cc1N=CN1CCCCC1 [Compound 158] | 2.60
67 | CCN(C)C=Nc1cc(C)c(-c2ccc(C(C)(CC)OC)cc2)cc1C (stereo not shown) [Compound 159] | 2.38
68 | CCN(C)C=Nc1cc(C)c(-c2ccc(OC(C)(C)C)cc2)cc1C [Compound 160] | 2.28
69 | Cc1cc(-c2ccc(C(C)(C)C)cc2)c(C)cc1N=CN(C)C(C)C [Compound 161] | 2.77
70 | CCN(C)C=Nc1cc(C)c(-c2ccc(CC(C)C)cc2)cc1C [Compound 162] | 2.84
71 | CCC(C)c1ccc(-c2cc(C)c(N=CN(C)CC)cc2C)cc1 (stereo not shown) [Compound 163] | 2.92
72 | CCN(C)C=Nc1cc(C)c(-c2ccc(C(C)(C)C)c(Br)c2)cc1C [Compound 164] | 3.13
73 | CCN(C)C=Nc1cc(C)c(-c2ccc(C3CCCCC3)cc2)cc1C [Compound 165] | 3.18
74 | CCN(C)C=Nc1cc(C)c(-c2ccc(C[Si](C)(C)C)cc2)cc1C [Compound 166] | 3.18

Same assay, conditions: reversed-phase HPLC column (C 18); HPLC reversed-phase C 18; 40° C.; 0.1% aqueous formic acid and acetonitrile, linear gradient 10% to 90% acetonitrile; read-out: log p (HCOOH)

Row | SMILES | chromatographic logP
75 | Cc1cc(-c2ccc(C(C)(C)C)cc2)c(C)cc1N=C1CCCCN1 [Compound 121, 4′-tert-butyl-2,5-dimethyl-N-[piperidin-2-ylidene]biphenyl-4-amine] | 2.6

Same assay, conditions: reversed-phase HPLC column (C 18); pH 2.3; HPLC, 0.1% aqueous formic acid and acetonitrile, 40° C.; read-out: log P (pH 2.3)

Row | SMILES | chromatographic logP
76 | Cc1cc(-c2ccc(C(C)(C)C)cc2)c(C)cc1N=C1CCCCN1 [Compound 121, 4′-tert-butyl-2,5-dimethyl-N-[piperidin-2-ylidene]biphenyl-4-amine] | 2.6

From US7999137B2, “Pesticide bi-phenyl-amidine derivatives” (Bayer Cropscience AG, priority 2006, dated 2011)
